Results: PubChem BioAssay AID248 (DTP/NCI, 2004)
Toxic doses and inconclusive results are not listed. No stated cut-off is given here; in the data, active means T/C of 150% or more; inactive means T/C below 125%.

Tested on: L1210 leukemia ip in BDF1 mice, survival T/C
Experiment: NCI In Vivo Anticancer Drug Screen. Data for tumor model L1210 Leukemia (intraperitoneal) in B6D2F1 (BDF1) mice
Conditions: endpoint: mean survival time, higher = longer survival
Summary of the method: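 Read-out is survival time, reported as the treated-group measurement over the vehicle-control measurement.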

[1] = dose: 100.0 mg/kg/injection, schedule: Q04DX003 (ip), vehicle: saline with Tween-80
[2] = dose: 200.0 mg/kg/injection, schedule: Q01DX009 (ip), vehicle: saline with Tween-80
[3] = dose: 200.0 mg/kg/injection, schedule: Q04DX003 (ip), vehicle: saline with Tween-80
[4] = dose: 400.0 mg/kg/injection, schedule: Q01DX009 (ip), vehicle: saline with Tween-80
[5] = dose: 400.0 mg/kg/injection, schedule: Q04DX003 (ip), vehicle: saline with Tween-80
[6] = dose: 100.0 mg/kg/injection, schedule: Q04DX003 (ip), vehicle: Klucel (hydroxypropylcellulose) (HPC)
[7] = dose: 200.0 mg/kg/injection, schedule: Q04DX003 (ip), vehicle: Klucel (hydroxypropylcellulose) (HPC)

Measured: T/C

CCOC(=O)CCCN(c1sc(C)c(-c2ccccc2)c1C(=O)OCC)S(=O)(=O)c1ccc(C)cc1
inactive: dose: 25.0 mg/kg/injection, schedule: Q01DX009 (ip), vehicle: saline with Tween-80 93 % of control | dose: 50.0 mg/kg/injection, schedule: Q01DX009 (ip), vehicle: saline with Tween-80 93 % of control | dose: 50.0 mg/kg/injection, schedule: Q04DX003 (ip), vehicle: saline with Tween-80 98 % of control | [1] 104 % of control | [2] 90 % of control | [3] 97 % of control | [4] 90 % of control | [5] 87 % of control

Cc1ccc(NC(=O)/C=C\C(=O)O)cc1
inactive: dose: 100.0 mg/kg/injection, schedule: Q01DX009 (ip), vehicle: Klucel (hydroxypropylcellulose) (HPC) 103 % of control | [6] 97 % of control | dose: 200.0 mg/kg/injection, schedule: Q01DX009 (ip), vehicle: Klucel (hydroxypropylcellulose) (HPC) 108 % of control | [7] 96 % of control | dose: 400.0 mg/kg/injection, schedule: Q01DX009 (ip), vehicle: Klucel (hydroxypropylcellulose) (HPC) 91 % of control | dose: 400.0 mg/kg/injection, schedule: Q04DX003 (ip), vehicle: Klucel (hydroxypropylcellulose) (HPC) 91 % of control

N#CCCNc1ccccc1
inactive: dose: 100.0 mg/kg/injection, schedule: Q01DX009 (ip), vehicle: saline with Tween-80 95 % of control | [1] 103 % of control | [2] 106 % of control | [3] 108 % of control | [4] 86 % of control | [5] 105 % of control

CC1CCC2N(C1)CC1C3(O)CC4(O)C(CCC5C(=O)C(O)CCC54C)C3(O)CC(O)C1(O)C2(C)O (stereo not given)
inactive: dose: 5.0 mg/kg/injection, schedule: Q01DX001 (ip), vehicle: saline 98 % of control | dose: 10.0 mg/kg/injection, schedule: Q01DX001 (ip), vehicle: saline 98 % of control | dose: 20.0 mg/kg/injection, schedule: Q01DX001 (ip), vehicle: saline 98 % of control

COc1ccccc1-n1c(O)c(N=Nc2ccc(Cl)cc2)c(=O)n(-c2ccc(Cl)cc2)c1=S
inactive: dose: 75.0 mg/kg/injection, schedule: Q04DX003 (ip), vehicle: Klucel (hydroxypropylcellulose) (HPC) 94 % of control | dose: 100.0 mg/kg/injection, schedule: Q01DX001 (ip), vehicle: Klucel (hydroxypropylcellulose) (HPC) 94 % of control | dose: 150.0 mg/kg/injection, schedule: Q04DX003 (ip), vehicle: Klucel (hydroxypropylcellulose) (HPC) 103 % of control | dose: 200.0 mg/kg/injection, schedule: Q01DX001 (ip), vehicle: Klucel (hydroxypropylcellulose) (HPC) 100 % of control | dose: 300.0 mg/kg/injection, schedule: Q04DX003 (ip), vehicle: Klucel (hydroxypropylcellulose) (HPC) 90 % of control

O=C(O)c1ccc[n+]([O-])c1
inactive: [1] 100 % of control | [3] 100 % of control

CC1(/C=N\NC(N)=O)CC2C=CC1C2 (stereo not given)
inactive: [6] 104 % of control | [7] 98 % of control

CCOC(=O)c1ccc[n+](Cc2ccccc2)c1
inactive: dose: 75.0 mg/kg/injection, schedule: Q01DX001 (ip), vehicle: saline 101 % of control | dose: 150.0 mg/kg/injection, schedule: Q01DX001 (ip), vehicle: saline 106 % of control | dose: 300.0 mg/kg/injection, schedule: Q01DX001 (ip), vehicle: saline 98 % of control
